Assay results taken from article PMC6964270, “Co-Prodrugs of 7-Ethyl-10-hydroxycamptothecin and Vorinostat with in Vitro Hydrolysis and Anticancer Effects” (ACS Omega, 2019).

Tests used:
[1] = In vitro degradation and release of co-prodrugs in PBS pH 7.4 (HPLC); assay type: physicochemical; settings: pH 7.4 PBS, 37 °C; for formation percentage of SN38: 24 h later
Procedure: (§1) Chromatographic detection was carried out by using Agilent 1200 high-performance liquid chromatography (HPLC, Agilent, Palo Alto, CA) with a Diamonsil C18 (250 mm × 4.6 mm) column. The detection was conducted at 254 nm (UV detector) with the column temperature at room temperature. The sample volume for each injection was 50 μL. The gradient elution was applied with a mobile phase of acetonitrile (ACN) containing 0.1% formic acid and water containing 0.1% formic acid with a constant flow rate of 1 mL/min: 0–15 min (5% ACN to 95% ACN), 15–25 min (95% ACN). The external standard method was established by HPLC in order to determine the content of each compound.
SN38-SAHA co-prodrug solutions with a concentration of 100 μM/L were diluted to 0.05 μM/L with 10 mM PBS buffer (pH 7.4/6.0). After incubation at 37 °C for 0.5, 1, 2, 3, 4, 6, 12, 24, and 48 h, the areas of SN38-SAHA co-prodrugs and other species were detected by HPLC as well. Then each compound was calculated by the concentration–area standard curve, which was obtained by the external standard method.

[2] = In vitro degradation and release of co-prodrugs in human plasma (HPLC); assay type: in vitro ADME; settings: male, 37 °C, read-out: t1/2 of co-prodrug in plasma (converted)
Source text: SAHA was synthesized before. SN-38 was purchased from Shanghai Puyi Chemical Co., Ltd. Di-tert-butyl dicarbonate ((Boc)2O), 4-dimethylaminopyridine (DMAP), 1,1′-carbonyl-diimidazole (CDI), and N,N′-diisopropylcarbodiimide (DIC) were all purchased from Energy Chemical Reagent Co. ( Shanghai, China). The different amino acids were purchased from Meryer Chemical Reagent Co. (Shanghai, China). CH2Cl2 was dried and redistilled before use. All chemical reagents used were of analytical-grade quality. Mouse plasma was taken from KM mouse (male, 6 weeks old). Human plasma was donated by an adult.
as §1
SN38-SAHA co-prodrug solutions with a concentration of 100 μM/L were diluted to 0.1 μM/L by plasma (human/mouse). After incubation at 37 °C for 0.5, 1, 2, 3, 4, and 6 h, 50 μL of reaction mixture was quenched with 50 μL of cold ACN and centrifuged at 30000 rpm × 5 min. The supernatant (50 μL) was detected by HPLC. Then each compound was calculated by the concentration–area standard curve, which was obtained by the external standard method.

A549 cell line = assay: In vitro cytotoxicity, SRB assay, A549; assay type: cell-based; settings: Homo sapiens, 72 h, three independent determinations, read-out: IC50 (mean ± SD) A549
HCT116 cell line = assay: In vitro cytotoxicity, SRB assay, HCT116; assay type: cell-based; settings: Homo sapiens, HCT-116, 72 h, three independent determinations, read-out: IC50 (mean ± SD) HCT-116

| Compound | formation percentage of SN38 [1] | half-life at 0.1 μM/L [2] | IC50 (A549 cell line) | IC50 (HCT116 cell line) | half-life at 0.05 μM/L ([1]; PBS buffer, read-out: half-life (t1/2) of co-prodrug in PBS (converted)) |
| --- | --- | --- | --- | --- | --- |
| CCc1c2c(nc3ccc(O)cc13)-c1cc3c(c(=O)n1C2)COC(=O)[C@@]3(CC)OC(=O)CCCNC(=O)ONC(=O)CCCCCCC(=O)Nc1ccccc1 [3c] | almost have no SN38 generated | 5 h | 663 ± 24.3 nM | 760 ± 30.9 nM | – |
| CCc1c2c(nc3ccc(O)cc13)-c1cc3c(c(=O)n1C2)COC(=O)[C@@]3(CC)OC(=O)CCNC(=O)ONC(=O)CCCCCCC(=O)Nc1ccccc1 [3b] | 3.4% | 3 h | 322 ± 32.5 nM | 428 ± 20.5 nM | – |
| CCc1c2c(nc3ccc(O)cc13)-c1cc3c(c(=O)n1C2)COC(=O)[C@@]3(CC)OC(=O)CCCCCNC(=O)ONC(=O)CCCCCCC(=O)Nc1ccccc1 [3d] | almost have no SN38 generated | 5 h | 3100 ± 116 nM | 3010 ± 251 nM | – |
| CCc1c2c(nc3ccc(O)cc13)-c1cc3c(c(=O)n1C2)COC(=O)[C@@]3(CC)OC(=O)CNC(=O)ONC(=O)CCCCCCC(=O)Nc1ccccc1 [3a] | 26.3% | 1 h | 87.3 ± 7.9 nM | 113 ± 10.8 nM | 2 h |
| CCc1c2c(nc3ccc(O)cc13)-c1cc3c(c(=O)n1C2)COC(=O)[C@]3(O)CC [SN38, 7-Ethyl-10-hydroxycamptothecin] | – | – | 45.4 ± 4.7 nM | 55.1 ± 10 nM | – |
